According to US20260327191A1, “GSK3a INHIBITORS AND METHODS OF USE THEREOF” (Blueprint Medicines Corporation, priority 2023, published 2026):
Read-outs that look alike come from different tables or passages of the source.

Tests used:
human GSK3α = target: T1, human GSK3α (Homo sapiens, UniProt P49840); assay: In vitro enzymatic activity assay, GSK3α; format: biochemical; details: 1.0 mM ATP, 1.0 μM peptide substrate, 120 min, 25° C
T1 construct: Full length human GSK3α or GSK3B expressed as N-terminal GST fusion proteins; GST (N); purchased Carna Biosciences (Japan); host or cells: baculovirus host

GSK3A = target: T2, GSK3A (Homo sapiens, UniProt P49840); assay: NanoBRET cellular target engagement assay, Nanoluc-GSK3A in HEK293 cells; format: cell-based; details: NanoBRET GSK3α IC50, HEK293 cells, tracer K-8, 2 hours, 37° C
T2 construct: expressed in transfected cells

GSK3B [1] = target: T3, GSK3B (Homo sapiens, UniProt P49841); assay: NanoBRET cellular target engagement assay, Nanoluc-GSK3B in HEK293 cells; format: cell-based; design: expressed in transfected cells; details: NanoBRET GSK3β IC50, HEK293 cells, tracer K-8, 2 hours, 37° C
GSK3B [2] = target: T3, GSK3B; assay: In vitro enzymatic activity assay, GSK3β; format: biochemical; design: Full length human GSK3α or GSK3B expressed as N-terminal GST fusion proteins; GST (N); purchased Carna Biosciences (Japan); host or cells: baculovirus host; details: 1.0 mM ATP, 1.0 μM peptide substrate, 120 min, 25° C

T1 sequence (P49840 whole entry, the tested form may be a part): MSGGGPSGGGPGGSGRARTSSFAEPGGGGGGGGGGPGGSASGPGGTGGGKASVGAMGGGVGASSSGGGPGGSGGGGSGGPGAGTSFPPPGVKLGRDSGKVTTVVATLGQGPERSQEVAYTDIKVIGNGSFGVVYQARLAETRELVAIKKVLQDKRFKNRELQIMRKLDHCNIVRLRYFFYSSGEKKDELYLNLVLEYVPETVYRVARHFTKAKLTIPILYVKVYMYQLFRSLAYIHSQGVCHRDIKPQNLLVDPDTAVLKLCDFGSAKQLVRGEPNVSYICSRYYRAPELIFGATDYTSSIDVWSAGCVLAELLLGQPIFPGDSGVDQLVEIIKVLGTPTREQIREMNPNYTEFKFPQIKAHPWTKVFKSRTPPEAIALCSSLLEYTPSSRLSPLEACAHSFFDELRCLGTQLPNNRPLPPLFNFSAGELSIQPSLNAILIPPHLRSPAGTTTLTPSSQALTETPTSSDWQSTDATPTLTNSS
T2 sequence (P49840 whole entry): as the sequence (P49840 whole entry, the tested form may be a part) above
T3 sequence (P49841 whole entry, the tested form may be a part): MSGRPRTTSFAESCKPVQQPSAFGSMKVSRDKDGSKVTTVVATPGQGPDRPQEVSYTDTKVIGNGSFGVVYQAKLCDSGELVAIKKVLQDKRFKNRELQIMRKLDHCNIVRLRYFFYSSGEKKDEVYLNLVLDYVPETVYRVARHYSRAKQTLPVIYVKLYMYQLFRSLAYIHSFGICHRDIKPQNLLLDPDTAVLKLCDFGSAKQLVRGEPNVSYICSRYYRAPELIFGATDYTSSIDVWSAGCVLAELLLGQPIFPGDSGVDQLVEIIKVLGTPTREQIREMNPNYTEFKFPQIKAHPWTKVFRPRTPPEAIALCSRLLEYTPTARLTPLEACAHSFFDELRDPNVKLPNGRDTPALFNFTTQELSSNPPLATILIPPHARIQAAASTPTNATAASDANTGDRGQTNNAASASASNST

SMILES	IC50 (human GSK3α; read-out: Enzyme GSK3α (IC50)) [nM]	IC50 (GSK3A) [nM]	IC50 (GSK3B [1]) [nM]	IC50 (GSK3B [2]; read-out: Enzyme GSK3β (IC50)) [nM]	IC50 (human GSK3α; Enzyme GSK3α (IC50)) [nM]	IC50 (GSK3B [2]; Enzyme GSK3β (IC50)) [nM]
COCc1cc(Cl)c(-n2cnc(N)c(C(=O)Nc3cncc(C(C)(C)N)c3)c2=O)c(Cl)c1 [Example 15, 4-amino-N-(5-(2-aminopropan-2-yl)pyridin-3-yl)-1-(2,6-dichloro-4-(methoxymethyl)phenyl)-6-oxo-1,6-dihydropyrimidine-5-carboxamide]	4.5	2.2	119	208		
Nc1ncn(-c2c(Cl)cc(C(F)F)cc2Cl)c(=O)c1C(=O)Nc1cncc([C@@H]2COCCCN2)c1 (single isomer, unassigned) [Example 59, (R)-N-(5-(1,4-oxazepan-3-yl)pyridin-3-yl)-4-amino-1-(2,6-dichloro-4-(difluoromethyl)phenyl)-6-oxo-1,6-dihydropyrimidine-5-carboxamide or (S)-N-(5-(1,4-oxazepan-3-yl)pyridin-3-yl)-4-amino-1-(2,6-dichloro-4-(difluoromethyl)phenyl)-6-oxo-1,6-dihydropyrimidine-5-carboxamide]	3.1	2.5	187	224		
CNCc1cncc(NC(=O)c2c(N)ncn(-c3c(C)cc(C(F)F)cc3C)c2=O)c1 [Example 105, 4-amino-1-(4-(difluoromethyl)-2,6-dimethylphenyl)-N-(5-((methylamino)methyl)pyridin-3-yl)-6-oxo-1,6-dihydropyrimidine-5-carboxamide]	19.3	7.2	577	1130		
CNCc1cncc(NC(=O)c2c(N)ncn(-c3c(Cl)cc(C(F)CF)cc3Cl)c2=O)c1 (single isomer, unassigned) [Example 116, (R)-4-amino-1-(2,6-dichloro-4-(1,2-difluoroethyl)phenyl)-N-(5-((methylamino)methyl)pyridin-3-yl)-6-oxo-1,6-dihydropyrimidine-5-carboxamide or (S)-4-amino-1-(2,6-dichloro-4-(1,2-difluoroethyl)phenyl)-N-(5-((methylamino)methyl)pyridin-3-yl)-6-oxo-1,6-dihydropyrimidine-5-carboxamide]	2.9	1.8	101	125		
CCOc1cc(C)c(-n2cnc(N)c(C(=O)Nc3cncc(C4CCC(C)N4)c3)c2=O)c(C)c1 (single isomer, unassigned) [Example 92]	16.4	6.8	584	1030		
COCc1cc(C)c(-n2cnc(N)c(C(=O)Nc3cncc4c3CCC4(C)N)c2=O)c(C)c1 (single isomer, unassigned) [Example 27, (R)-4-amino-N-(7-amino-7-methyl-6,7-dihydro-5H-cyclopenta[c]pyridin-4-yl)-1-(4-(methoxymethyl)-2,6-dimethylphenyl)-6-oxo-1,6-dihydropyrimidine-5-carboxamide or (S)-4-amino-N-(7-amino-7-methyl-6,7-dihydro-5H-cyclopenta[c]pyridin-4-yl)-1-(4-(methoxymethyl)-2,6-dimethylphenyl)-6-oxo-1,6-dihydropyrimidine-5-carboxamide]	2.4	1.7	42.5	54.2		
Cc1cc(C(F)CF)cc(C)c1-n1cnc(N)c(C(=O)Nc2cncc(C3CCCCCN3)c2)c1=O (single isomer, unassigned) [Example 115]	7.6	4.7	281	362		
Cc1cc(CS(C)(=O)=O)cc(C)c1-n1cnc(N)c(C(=O)Nc2cncc([C@H]3CCCCN3)c2)c1=O [Example 158, (R)-4-amino-1-(2,6-dimethyl-4-((methylsulfonyl)methyl)phenyl)-6-oxo-N-(5-(piperidin-2-yl)pyridin-3-yl)-1,6-dihydropyrimidine-5-carboxamide]	9.3	37.3	532	355		
CCOc1cc(C)c(-n2cnc(N)c(C(=O)Nc3cnnc(C(N)=O)c3)c2=O)c(C)c1 [Example 29, 5-(4-amino-1-(4-ethoxy-2,6-dimethylphenyl)-6-oxo-1,6-dihydropyrimidine-5-carboxamido)pyridazine-3-carboxamide]		79.2	25000		92.2	3800
COc1cc(Cl)c(-n2cnc(N)c(C(=O)Nc3cncc(C(N)CC(F)F)c3)c2=O)c(Cl)c1 (single isomer, unassigned) [Example 85, (R)-4-amino-N-(5-(1-amino-3,3-difluoropropyl)pyridin-3-yl)-1-(2,6-dichloro-4-methoxyphenyl)-6-oxo-1,6-dihydropyrimidine-5-carboxamide or (S)-4-amino-N-(5-(1-amino-3,3-difluoropropyl)pyridin-3-yl)-1-(2,6-dichloro-4-methoxyphenyl)-6-oxo-1,6-dihydropyrimidine-5-carboxamide]	9.4	4.2	374	551		
COCc1cc(C)c(-n2cnc(N)c(C(=O)Nc3cncc(C4CCC(C)N4)c3)c2=O)c(C)c1 (single isomer, unassigned) [Example 101]	19.6	7.8	800	941		
CCC(N)c1cncc(NC(=O)c2c(N)ncn(-c3c(C)cc(C(F)(F)F)cc3C)c2=O)c1 (single isomer, unassigned) [Example 88, (R)-4-amino-N-(5-(1-aminopropyl)pyridin-3-yl)-1-(2,6-dimethyl-4-(trifluoromethyl)phenyl)-6-oxo-1,6-dihydropyrimidine-5-carboxamide or (S)-4-amino-N-(5-(1-aminopropyl)pyridin-3-yl)-1-(2,6-dimethyl-4-(trifluoromethyl)phenyl)-6-oxo-1,6-dihydropyrimidine-5-carboxamide]	15.4	8.1	454	1020		
Nc1ncn(-c2c(Cl)cc(N3CCC3)cc2Cl)c(=O)c1C(=O)Nc1cncc([C@@H]2CCCCN2)c1 [Example 209, (S)-4-amino-1-(4-(azetidin-1-yl)-2,6-dichlorophenyl)-6-oxo-N-(5-(piperidin-2-yl)pyridin-3-yl)-1,6-dihydropyrimidine-5-carboxamide]	5.2	5.9	300	383		
CNCc1cncc(NC(=O)c2c(N)ncn(-c3c(C)cc(COC)cc3C)c2=O)c1 [Example 99, 4-amino-1-(4-(methoxymethyl)-2,6-dimethylphenyl)-N-(5-((methylamino)methyl)pyridin-3-yl)-6-oxo-1,6-dihydropyrimidine-5-carboxamide]	20.5	7.4	565	1020		
CCC(N)c1cncc(NC(=O)c2c(N)ncn(-c3c(Cl)cncc3Cl)c2=O)c1 (single isomer, unassigned) [Example 153, (R)-4-amino-N-(5-(1-aminopropyl)pyridin-3-yl)-1-(3,5-dichloropyridin-4-yl)-6-oxo-1,6-dihydropyrimidine-5-carboxamide or (S)-4-amino-N-(5-(1-aminopropyl)pyridin-3-yl)-1-(3,5-dichloropyridin-4-yl)-6-oxo-1,6-dihydropyrimidine-5-carboxamide]	7.8	6.4	491	346		
CCC[C@@H](N)c1cncc(NC(=O)c2c(N)ncn(-c3c(C)cc(OCC)cc3C)c2=O)c1 [Example 94, (R)-4-amino-N-(5-(1-aminobutyl)pyridin-3-yl)-1-(4-ethoxy-2,6-dimethylphenyl)-6-oxo-1,6-dihydropyrimidine-5-carboxamide]	7.6	6.6	384	598		
CNC(C)c1cncc(NC(=O)c2c(N)ncn(-c3c(Cl)cc(Cl)cc3Cl)c2=O)c1 (single isomer, unassigned) [Example 13, (S)-4-amino-N-(5-(1-(methylamino)ethyl)pyridin-3-yl)-6-oxo-1-(2,4,6-trichlorophenyl)-1,6-dihydropyrimidine-5-carboxamide or (R)-4-amino-N-(5-(1-(methylamino)ethyl)pyridin-3-yl)-6-oxo-1-(2,4,6-trichlorophenyl)-1,6-dihydropyrimidine-5-carboxamide]	17.7	9.8	503	1010		
CNC(COC)c1cncc(NC(=O)c2c(N)ncn(-c3c(Cl)cc(C(F)(F)F)cc3Cl)c2=O)c1 (single isomer, unassigned) [Example 121, (R)-4-amino-1-(2,6-dichloro-4-(trifluoromethyl)phenyl)-N-(5-(2-methoxy-1-(methylamino)ethyl)pyridin-3-yl)-6-oxo-1,6-dihydropyrimidine-5-carboxamide or (S)-4-amino-1-(2,6-dichloro-4-(trifluoromethyl)phenyl)-N-(5-(2-methoxy-1-(methylamino)ethyl)pyridin-3-yl)-6-oxo-1,6-dihydropyrimidine-5-carboxamide]	3.8	3.4	395	306		
